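All cell lines were grown in 96-well plates and treated with compound for 48 hours. TGI: total growth inhibition.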
What was measured:
Assay in all cases: growth of human tumour cells (NCI), 48 h
HOP-18 NSCLC = test system: HOP-18 NSCLC
MALME-3M melanoma = test system: MALME-3M melanoma
CAKI-1 renal = test system: CAKI-1 renal
DLD-1 colon = test system: DLD-1 colon
SNB-75 CNS = test system: SNB-75 CNS
DMS 273 small cell lung = test system: DMS 273 small cell lung
A549 NSCLC = test system: A549 NSCLC
LOX IMVI melanoma = test system: LOX IMVI melanoma
CCRF-CEM leukemia = test system: CCRF-CEM leukemia
OVCAR-5 ovarian = test system: OVCAR-5 ovarian
SN12C renal = test system: SN12C renal

O=C1OCc2cccc3c2-c2c1cccc2C(=O)OC3
TGI (HOP-18 NSCLC): > 100 µM | TGI (MALME-3M melanoma): > 100 µM | TGI (CAKI-1 renal): > 100 µM | TGI (DLD-1 colon): > 100 µM

c1ccc(-c2nnc(-c3nsc4ccccc34)o2)cc1
TGI (SNB-75 CNS): 19.7 µM | TGI (DMS 273 small cell lung): > 100 µM | TGI (A549 NSCLC): > 100 µM | TGI (LOX IMVI melanoma): > 100 µM | TGI (CCRF-CEM leukemia): > 100 µM | TGI (OVCAR-5 ovarian): > 100 µM | TGI (SN12C renal): > 100 µM

Source: PubChem BioAssay (NCI)
